Measured values as given in US10413583B2, “Synthetic substrates for enzymes that catalyze reactions of modified cysteines and related methods” (The University of Chicago, priority 2016, dated 2019).
Entries after “also recorded” stand apart in the source; their conditions may differ.

Experiments:
[1] = tested on: A431 cells; assay: DPP-3 in A431 cells, starvation and EGF stimulation (flow cytometry, microscopy); format: cell-based, human; conditions: A431, starved and non-starved, 1 μM inhibitor, 5 μM DPP-3
Experimental: (§1) Cells were plated on a 10 cm dish with 10 mL of DMEM/High Glucose (10% FBS, 1% P/S, L-Glutamine, Sodium pyruvate) 36-48 hours prior to the day of experiment and maintained at 37° C., 5% CO2 so as to obtain 80-90% confluency. Cells were washed with DPBS and trypsinized with 1 mL 0.05% Trypsin. 5 mL of DMEM/High Glucose (10% FBS, L-Glutamine, Sodium pyruvate) was added and cells were spun down at 1200 rpm for 3 min. Media was discarded and cells were resuspended in 5 mL of Live Cell Imaging Solution and again spun down at 1200 rpm for 3 min. The cells pellets obtained were resuspended in 3-5 mL of Live Cell Imaging Solution and divided into 500 μL aliquots. The aliquots were treated with either 0.2% DMSO carrier or 1 μM of PalmB/ML348 or 1 μM/5 μM of ML349 inhibitor. After 30 min of incubation at room temperature, 1 μL of 2.5 mM DPP-3 in DMSO was added to each aliquot for a final concentration of 5 μM, and the solutions were mixed. After 5 min incubation at room temperature, fluorescence signal in FITC channel was measured for 10000 cells (5000 for HeLa experiments) on a LSR-Fortessa 4-15 HTS (BD digital instrument, 488 nm laser with 530/30 nm filter for FITC; BD, Franklin Lakes, N.J., United States of America). For analyzing DPP2 in HEK293T cells, the aliquots were treated with either 0.2% DMSO carrier or 2 μM of PalmB, 5 or 20 μM of ML348/ML349 and then analyzed by the protocol as mentioned above. Data was analyzed by FlowJo software version 10.0.8. For comparison of A431 starved versus non-starved, parallel 10 cm dishes of A431 cells were plated in 10 mL of DMEM (high glucose, 10% FBS, 1% P/S), and grown for 36 h. The growth media was removed, and replaced by 10 mL of either DMEM (High glucose) with 10% FBS to maintain “growth” conditions, or DMEM (High glucose) without FBS respectively for “starvation” conditions, and incubated for 14 h. After trypsinization, both plates were treated with 5 mL of DMEM (high glucose) for spinning the cells down, and further processing and analysis were performed as described above by flow cytometry.
Parallel 35 mm glass bottom dishes (D35-10-1.5-N; Cellvis, Mountain View, Calif., United States of America) of A431 cells (450,000) were plated in 2 mL of DMEM glutamax (high glucose, 10% FBS, 1% P/S), and grown for 36 h. The growth media was removed, and replaced by 1.5 mL of either DMEM (High glucose) with 10% FBS to maintain “growth” conditions, or DMEM (High glucose) without FBS respectively for “starvation” conditions, and incubated for 24 h. […] For data analysis, the average fluorescence intensity per image in each experimental condition was obtained by selecting ROIs in the brightfield image. For display, the data were normalized to the average fluorescence intensity of the control conditions. […]

[2] = tested on: HeLa cells; assay: Flow cytometry of DPP-3 in HeLa cells; format: cell-based, human; conditions: 1 μM inhibitor, 5 μM DPP-3, 5 min
Experimental: as §1

[3] = tested on: human colon organoids; assay: Epifluorescent imaging of RDP-2 with human colon organoids; format: cell-based; conditions: 40 μM inhibitor 30 min, 5 μM RDP-2
Experimental: At least 24 h before imaging experiments, cultured colon organoids were split using a 25G needle and 1 mL syringe, pelleted, and 50-100 organoids per well were re-plated in eight-well chambered slides (20 μL droplets/well; 250 μL organoid growth media; Cellvis, Mountain View, Calif., United States of America) for treatment and imaging. 30 min before the addition of RDP-2, the cell culture media was removed and cells were washed with 300 μL of serum-free FluoroBrite DMEM (Gibco, Gaithersburg, Md., United States of America; High Glucose, Glutamax, no FBS). […] After incubation for 10 min at 37° C. and 5% CO2, the cells were washed with 300 μL Live Cell Imaging Solution and 300 μL of Live Cell Imaging Solution containing DMSO or the appropriate inhibitor was added to the cells immediately before images were obtained on an inverted epi-fluorescence microscope (Olympus IX83; Olympus Corporation, Tokyo, Japan) attached with EMCCD camera (Photometrics EVOLVE™ Delta, Photometrics, Tucson, Ariz., United States of America) with 40× oil objective (N/A 1.3) for RDP-2 (excitation filter 1 430/24 nm, dichroic chroma 89007, emission filter 1 470/24 nm, exposure time 150 ms, EM gain 100, excitation filter 2 480/20 nm, dichroic chroma 49014, emission filter 2 575/40 nm, exposure time 75 ms, EM gain 75), brightfield (exposure time 50 ms, EM gain 30). […]

[4] = tested on: MDA-MB-231 cells; assay: Flow cytometry of DPP-3 in MDA-MB-231 cells; format: cell-based, human; conditions: MDA-MF-231 as printed; 1 μM inhibitor; 5 μM DPP-3, 5 min
Experimental: as §1

[5] = tested on: MCF-7 cells; assay: Flow cytometry of DPP-3 in MCF-7 cells; format: cell-based, human; conditions: 1 μM inhibitor, 5 μM DPP-3, 5 min
Experimental: as §1

## CCCCCCCCCC[C@@H]1C(=O)O[C@H]1CCc1ccc(OC)c(OC)c1 [PalmB, palmostatin B]
[1]
  effect of inhibitor on depalmitoylation signal measured by DPP-3: knocked down; also recorded: knocks down the depalmitoylation signal
[2]
  effect of inhibitor on depalmitoylation signal measured by DPP-3: knocks down the depalmitoylation signal
[3]
  inhibition / decrease of measured S-depalmitoylation, RDP-2: about 50%
[4]
  effect of inhibitor on depalmitoylation signal measured by DPP-3: knocks down the depalmitoylation signal
[5]
  effect of inhibitor on depalmitoylation signal measured by DPP-3: knocks down the depalmitoylation signal

## O=C(CN1CCN(C(=O)c2ccco2)CC1)Nc1cc(C(F)(F)F)ccc1Cl [ML348]
[1]
  effect of inhibitor on depalmitoylation signal measured by DPP-3: knocks down the depalmitoylation signal
[1]; listed as M348
  effect of inhibitor on depalmitoylation signal measured by DPP-3: knocked down
[2]
  effect of inhibitor on depalmitoylation signal measured by DPP-3: knocks down the depalmitoylation signal
[3]
  inhibition / decrease of measured S-depalmitoylation, RDP-2: about 20%
[4]
  effect of inhibitor on depalmitoylation signal measured by DPP-3: knocks down the depalmitoylation signal
[5]
  effect of inhibitor on depalmitoylation signal measured by DPP-3: knocks down the depalmitoylation signal
